Assay [1] deals with H3K27me3 mark in Hela cells expressing wild type EZH2. Description: H3K27me3 Alpha Hela Assay (AlphaLISA). The following applies: Homo sapiens, 72 hrs, read-out: H3K27me3_Alpha_HeLa (EC50). The format is cell-based. The essentials:
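HeLa cells (1,000/well) were exposed 72 h at 37 °C to ten 3-fold compound dilutions. H3K27me3 was then measured by AlphaLISA after histone lysis/extraction, using anti-K27me3 acceptor beads, biotinylated anti-H3 and streptavidin donor beads. Signals were normalized to DMSO and fitted to dose-response curves; a duplicate plate measured viability.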
In general terms: Alpha assays give light when donor and acceptor beads are brought close together.

A further assay has as its target EZH2 (Homo sapiens, UniProt Q15910). As to the kind of experiment: EZH2 Assay (3H SAM methyl transfer, rPRC2, FlashPlate). The following applies: rPRC2, biotinylated oligonucleosomes, 0.2 μM 3H SAM, 2 nM EZH2. The format is biochemical. The essentials: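 rPRC2 (2 nM EZH2) was preincubated 20 min with compound (80 to 0.16 μM, 10 points), then reacted 60 min with 0.2 μM ³H-SAM, 0.2 μM biotinylated oligonucleosomes and 3.6 μM H3K27me3 peptide at pH 8.5. Methylated product was captured on SAV FlashPlates and counted, and IC50 came from a 4-parameter fit.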

pEC50, pIC50: −log10 of the molar value.

Sequence of EZH2 (Q15910 whole entry): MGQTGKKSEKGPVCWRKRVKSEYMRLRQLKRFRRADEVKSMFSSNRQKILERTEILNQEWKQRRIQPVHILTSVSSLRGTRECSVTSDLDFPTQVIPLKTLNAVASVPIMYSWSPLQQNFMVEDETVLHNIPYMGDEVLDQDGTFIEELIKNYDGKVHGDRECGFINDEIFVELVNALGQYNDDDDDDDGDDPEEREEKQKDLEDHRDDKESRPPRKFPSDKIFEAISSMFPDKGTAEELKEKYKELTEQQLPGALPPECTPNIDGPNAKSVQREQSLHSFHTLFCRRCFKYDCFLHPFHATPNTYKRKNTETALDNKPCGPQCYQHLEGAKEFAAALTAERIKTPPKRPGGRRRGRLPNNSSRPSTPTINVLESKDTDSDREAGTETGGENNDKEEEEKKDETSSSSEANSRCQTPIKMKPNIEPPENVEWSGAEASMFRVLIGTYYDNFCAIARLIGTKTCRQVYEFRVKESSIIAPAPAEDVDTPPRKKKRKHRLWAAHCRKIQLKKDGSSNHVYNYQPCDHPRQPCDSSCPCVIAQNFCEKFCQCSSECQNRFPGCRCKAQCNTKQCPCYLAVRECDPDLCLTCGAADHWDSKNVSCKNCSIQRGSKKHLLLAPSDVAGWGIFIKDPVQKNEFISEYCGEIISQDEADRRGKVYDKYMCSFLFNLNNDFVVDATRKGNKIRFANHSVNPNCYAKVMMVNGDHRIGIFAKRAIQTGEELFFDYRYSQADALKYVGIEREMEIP
Sequence of EZH2 (O75530 whole entry partner): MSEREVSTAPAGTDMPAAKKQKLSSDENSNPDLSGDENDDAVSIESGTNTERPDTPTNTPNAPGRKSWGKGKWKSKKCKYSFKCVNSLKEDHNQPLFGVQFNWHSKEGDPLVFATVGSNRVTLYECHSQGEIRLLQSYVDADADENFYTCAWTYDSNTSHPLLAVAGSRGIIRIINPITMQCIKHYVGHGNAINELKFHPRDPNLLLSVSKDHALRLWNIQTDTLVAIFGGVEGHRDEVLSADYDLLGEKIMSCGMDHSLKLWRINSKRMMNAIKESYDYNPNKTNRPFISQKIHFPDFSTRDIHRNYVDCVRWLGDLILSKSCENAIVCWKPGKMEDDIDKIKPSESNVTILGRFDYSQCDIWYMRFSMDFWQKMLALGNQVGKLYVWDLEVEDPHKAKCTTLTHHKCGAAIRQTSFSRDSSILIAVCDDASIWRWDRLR
Sequence of EZH2 (Q15022 whole entry partner): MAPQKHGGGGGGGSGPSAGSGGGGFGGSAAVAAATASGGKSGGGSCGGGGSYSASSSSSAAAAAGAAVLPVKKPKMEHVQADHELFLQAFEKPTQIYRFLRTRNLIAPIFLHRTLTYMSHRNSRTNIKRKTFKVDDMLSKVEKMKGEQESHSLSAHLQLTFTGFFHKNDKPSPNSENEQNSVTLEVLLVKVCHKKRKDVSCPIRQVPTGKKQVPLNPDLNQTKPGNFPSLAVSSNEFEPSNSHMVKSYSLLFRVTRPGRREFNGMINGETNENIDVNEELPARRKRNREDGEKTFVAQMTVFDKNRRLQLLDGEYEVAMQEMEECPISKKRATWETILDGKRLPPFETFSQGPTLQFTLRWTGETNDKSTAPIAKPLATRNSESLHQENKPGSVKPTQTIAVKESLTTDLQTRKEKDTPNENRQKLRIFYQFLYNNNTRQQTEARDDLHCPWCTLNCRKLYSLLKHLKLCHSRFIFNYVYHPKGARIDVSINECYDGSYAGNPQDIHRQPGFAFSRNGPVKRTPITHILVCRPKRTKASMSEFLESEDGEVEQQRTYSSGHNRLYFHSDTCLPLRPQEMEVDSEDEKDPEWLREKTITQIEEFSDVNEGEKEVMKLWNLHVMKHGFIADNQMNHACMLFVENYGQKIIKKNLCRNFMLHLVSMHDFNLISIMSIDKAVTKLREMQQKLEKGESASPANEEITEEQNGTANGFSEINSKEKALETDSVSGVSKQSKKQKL

For `COc1cc(C)[nH]c(=O)c1CNC(=O)c1c(C)c(C(C)C2CCOCC2)n2ncccc12` (racemic) [Compound 116, (±)-N-((4-methoxy-6-methyl-2-oxo-1,2-dihydropyridin-3-yl)methyl)-6-methyl-7-(1-(tetrahydro-2H-pyran-4-yl)ethyl)pyrrolo[1,2-b]pyridazine-5-carboxamide], the pEC50 – broadly, −log10 of the EC50, conventionally taken in molar units – in assay [1] is > 6.40. Besides, on EZH2, the pIC50 (usually the IC50 on a negative log10 scale, so that one unit is a factor of ten) is > 7.00.
As to `COc1cc(C)[nH]c(=O)c1CNC(=O)c1c(C)c(C(C)c2ccccc2)n2ncccc12` (racemic) [Compound 101, (±)-N-((4-methoxy-6-methyl-2-oxo-1,2-dihydropyridin-3-yl)methyl)-6-methyl-7-(1-phenylethyl)pyrrolo[1,2-b]pyridazine-5-carboxamide], the pEC50 in assay [1] was > 6.40. Besides, the pIC50 against EZH2 is > 7.00.
The matching figures for `COc1cc(C)[nH]c(=O)c1CNC(=O)c1c(C)c(C(C)c2ccccc2)n2ncccc12` (single isomer, unassigned) [Compound 105, (R or S)-N-((4-methoxy-6-methyl-2-oxo-1,2-dihydropyridin-3-yl)methyl)-6-methyl-7-(1-phenylethyl)pyrrolo[1,2-b]pyridazine-5-carboxamide]: > 6.40 and > 7.00.

(Values after patent publication US9745305B2, “Modulators of methyl modifying enzymes, compositions and uses thereof” (Constellation Pharmaceuticals, Inc., priority 2013, dated 2017).)
